Experimental data reported in ChEMBL document CHEMBL1201862, “PubChem BioAssay data set” (2004).
Activity calls are given as the source filed them.

Key:
[1] = inhibitors of firefly luciferase expression or activity, dose response, H4 neuroglioma cells, luminescence (AID 1990); type: functional, cell-based
[2] = insulin promoter down-regulators in MIN6 cells, imaging, high-content screening, mouse beta cells (AID 1628); type: functional
[3] = inhibitors of SNCA 5'UTR-driven reporter translation, confirmation, H4 neuroglioma cells, luminescence (AID 1988); type: functional, cell-based
[4] = biological target: T1, Alkaline phosphatase, tissue-nonspecific isozyme (Homo sapiens, UniProt P05186); experiment: TNAP enzyme activators, dose response, selectivity assay for human IAP activator project, biochemical, TNAP isozyme, human IAP uHTS hits (AID 488886); type: functional;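 note: potency of compounds raising TNAP activity as a selectivity check on IAP activators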
T1 sequence (P05186 whole entry): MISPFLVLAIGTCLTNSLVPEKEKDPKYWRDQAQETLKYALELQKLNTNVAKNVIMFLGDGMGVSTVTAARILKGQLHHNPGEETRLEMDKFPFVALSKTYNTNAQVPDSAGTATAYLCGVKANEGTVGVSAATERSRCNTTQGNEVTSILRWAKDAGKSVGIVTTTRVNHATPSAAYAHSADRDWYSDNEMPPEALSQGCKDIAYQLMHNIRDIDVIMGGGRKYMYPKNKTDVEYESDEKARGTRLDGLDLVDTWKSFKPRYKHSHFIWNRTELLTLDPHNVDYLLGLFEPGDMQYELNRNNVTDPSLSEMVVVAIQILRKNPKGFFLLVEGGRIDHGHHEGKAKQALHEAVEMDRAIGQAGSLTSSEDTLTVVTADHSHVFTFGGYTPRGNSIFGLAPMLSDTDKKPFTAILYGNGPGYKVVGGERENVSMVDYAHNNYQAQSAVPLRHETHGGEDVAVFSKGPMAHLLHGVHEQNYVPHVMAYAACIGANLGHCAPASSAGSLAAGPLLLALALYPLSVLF

[5] = human group III sPLA2 inhibitors, dose response, biochemical, QFRET, IC50 (AID 743457);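 note: green fluorescence rise as the enzyme cleaves BODIPY PC-A2 in liposomes; potency for inhibition of the enzyme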
[6] = cytotoxicity toward NIH3T3 fibroblasts, dose response, counter-screen, cell-based, ATP luminescence, mouse fibroblasts (AID 2010); type: functional;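 note: cells exposed to compound for about 90 hours before reading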
cells [7] = type: functional, cell-based
[8] = HepG2 cell cytotoxicity, dose response, cytotoxicity control for Shn3 inhibitor project, CellTiter-Glo, cherry-picked (AID 624134); type: functional, cell-based
HEK293 = experiment: SAR Analysis of small molecule inhibitors of T-cell specific antigen receptor-induced NF-kB activation in a HEK-293T cell line using a luminescence assay - Set 2. [Related pubchem assays (depositor defined):AID435003, AID435012, AID489026]; type: functional, cell-based; settings: Homo sapiens
[9] = cytotoxicity in COV434 cells, dose response, cytotoxicity control for PAX8 inhibitor project, cell-based, plate reader, dry powder, SA7 (AID 743145); type: functional
[10] = NIH:OVCAR-3 ovarian cancer cell cytotoxicity, dose response, PAX8 inhibitor project, plate reader, dry powder samples (AID 743044); type: functional, cell-based
[11] = cytotoxicity in OVCAR4 cells, dose response, cytotoxicity control for PAX8 inhibitor project, cell-based, plate reader, dry powder, SA11 (AID 743150); type: functional; settings: OVCAR-4
[12] = IGROV1 ovarian cancer cell cytotoxicity, dose response, PAX8 inhibitor project, plate reader, dry powder samples (AID 743043); type: functional, cell-based; settings: IGROV-1
[13] = biological target: T2, Histone-lysine N-methyltransferase NSD2 (Homo sapiens, UniProt O96028); type: biochemical
T2 sequence (O96028 whole entry): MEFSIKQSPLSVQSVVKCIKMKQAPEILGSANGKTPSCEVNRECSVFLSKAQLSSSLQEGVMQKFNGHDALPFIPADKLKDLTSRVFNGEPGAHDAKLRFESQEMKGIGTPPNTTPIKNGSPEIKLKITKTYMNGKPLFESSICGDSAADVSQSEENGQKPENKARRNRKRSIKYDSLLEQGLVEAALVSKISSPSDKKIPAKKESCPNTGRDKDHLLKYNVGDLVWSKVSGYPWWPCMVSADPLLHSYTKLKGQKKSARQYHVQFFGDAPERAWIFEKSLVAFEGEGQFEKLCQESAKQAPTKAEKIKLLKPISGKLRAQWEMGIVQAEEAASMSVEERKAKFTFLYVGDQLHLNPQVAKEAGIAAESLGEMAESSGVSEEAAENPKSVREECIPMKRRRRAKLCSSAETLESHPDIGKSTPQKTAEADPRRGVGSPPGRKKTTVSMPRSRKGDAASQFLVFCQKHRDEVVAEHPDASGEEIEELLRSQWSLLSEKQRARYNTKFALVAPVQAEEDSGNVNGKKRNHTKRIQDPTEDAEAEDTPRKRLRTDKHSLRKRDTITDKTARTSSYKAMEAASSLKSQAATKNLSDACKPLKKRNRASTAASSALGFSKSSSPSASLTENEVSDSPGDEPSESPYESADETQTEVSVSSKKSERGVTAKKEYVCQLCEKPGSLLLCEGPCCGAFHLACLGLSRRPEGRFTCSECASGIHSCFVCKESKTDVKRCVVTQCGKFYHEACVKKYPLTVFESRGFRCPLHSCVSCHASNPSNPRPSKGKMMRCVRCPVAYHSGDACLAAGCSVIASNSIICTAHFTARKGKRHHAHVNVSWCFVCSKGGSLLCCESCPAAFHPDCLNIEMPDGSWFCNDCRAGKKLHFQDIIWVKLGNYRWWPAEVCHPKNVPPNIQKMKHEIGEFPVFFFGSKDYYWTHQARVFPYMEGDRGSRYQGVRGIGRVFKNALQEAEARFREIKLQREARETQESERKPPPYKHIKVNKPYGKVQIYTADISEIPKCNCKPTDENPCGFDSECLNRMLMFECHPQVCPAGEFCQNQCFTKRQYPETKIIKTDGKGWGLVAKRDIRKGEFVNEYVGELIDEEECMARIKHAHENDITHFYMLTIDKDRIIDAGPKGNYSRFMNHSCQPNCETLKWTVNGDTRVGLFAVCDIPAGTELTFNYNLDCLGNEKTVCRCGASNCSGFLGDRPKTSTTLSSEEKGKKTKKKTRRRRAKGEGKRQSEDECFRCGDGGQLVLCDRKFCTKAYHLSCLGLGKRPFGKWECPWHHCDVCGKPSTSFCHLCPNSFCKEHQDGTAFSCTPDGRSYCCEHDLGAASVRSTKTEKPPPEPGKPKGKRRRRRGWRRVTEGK

cells [14] = type: functional
HT-1080 = experiment: cytotoxicity in HT1080 fibrosarcoma cells, cell-based, fluorescence readout (AID 620); type: functional; settings: Homo sapiens
[15] = biological target: Luciferin 4-monooxygenase (Photinus pyralis, UniProt P08659); experiment: Counter Screen for Luciferase-based Assay Positives. [Related pubchem assays: 620, 618, 411 ]
[16] = Intein inhibitors as potential Tuberculosis drugs, a cytotoxicity screen. [Related pubchem assays (depositor defined):AID2221, AID2223, AID434968, AID435010, AID449749, AID449750, AID489010]; type: functional
[17] = Vero E6 cell cytotoxicity, dose response, cytotoxicity control for non-replicating M. tuberculosis project, secondary assay (AID 492998); type: functional, VeroE6; settings: Vero C1008
[18] = THP-1 cell cytotoxicity, dose response, cytotoxicity control for non-replicating M. tuberculosis project (AID 489025); type: functional

Luciferin 4-monooxygenase, sequence (P08659 whole entry): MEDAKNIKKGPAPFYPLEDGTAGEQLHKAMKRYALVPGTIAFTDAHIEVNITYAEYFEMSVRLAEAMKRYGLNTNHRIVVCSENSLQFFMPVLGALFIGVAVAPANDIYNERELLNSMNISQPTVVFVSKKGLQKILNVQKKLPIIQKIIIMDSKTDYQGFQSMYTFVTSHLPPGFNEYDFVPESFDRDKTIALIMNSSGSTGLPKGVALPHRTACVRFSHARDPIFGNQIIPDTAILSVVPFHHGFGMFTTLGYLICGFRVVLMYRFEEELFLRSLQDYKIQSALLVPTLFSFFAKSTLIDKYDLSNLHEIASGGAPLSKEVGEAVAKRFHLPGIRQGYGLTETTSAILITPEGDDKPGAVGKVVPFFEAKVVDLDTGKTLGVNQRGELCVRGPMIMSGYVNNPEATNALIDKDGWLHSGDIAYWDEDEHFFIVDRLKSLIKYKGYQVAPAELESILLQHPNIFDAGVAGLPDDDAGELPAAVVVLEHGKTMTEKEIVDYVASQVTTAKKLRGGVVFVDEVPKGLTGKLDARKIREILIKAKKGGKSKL

For `O=C(/C=C/c1cccs1)NC(=S)NNC(=O)c1ccccc1O`, the EC50 [1] was > 120 µM (not active), the IC50 [2] was 2.78 µM (active) and the EC50 [3] was > 120 µM (not active). For the same compound, the EC50 [4] was 11.8 µM (active) and the IC50 [5] was > 122 µM (inactive).
For `CCCCC(=O)NC(c1ccccc1)c1ccc2cccnc2c1O` (stereo unspecified), the EC50 [6] was 1.03 µM (active), the EC50 (cells [7]) was 7.75 µM (active) and the AC50 [8] was 2.44 µM (active). For the same compound, the IC50 (HEK293) was 8.62 µM (active), the AC50 [9] was 4.16 µM (active) and the AC50 [10] was 2.45 µM (active). For the same compound, the AC50 [11] was 9.22 µM (active) and the AC50 [12] was 5.47 µM (active).
With `COc1ccc(-n2c3nc4ccccc4nc3c3c(=N)oc(C)nc32)cc1` the AC50 [13] was > 20 µM (inactive).
With `O=C(N/N=C1\C/C(=N\NC(=O)c2ccncc2)c2ccccc21)c1ccncc1` the AC50 [13] was 4.72 µM (active).
With `CC(=O)N(Cc1ccc(F)cc1)C1=C(NCCc2ccccc2)C(=O)c2ccccc2C1=O` the IC50 (cells [14]) was 3.23 µM (active), the EC50 (HT-1080) was 15.6 µM (active) and the EC50 [15] was 7.95 µM (active). The CC50 [16] was 5.56 µM (active), the CC50 [17] was 7 µM (active) and the CC50 [18] was 0.67 µM (active).
